Results from ChEMBL document CHEMBL1139984, “Potent and selective biphenyl azole inhibitors of adipocyte fatty acid binding protein (aFABP)” (Bioorg Med Chem Lett, 2007).

Key:
[1] = biological target: Fatty acid-binding protein 5 (Homo sapiens, UniProt Q01469); assay: Displacement of 1,8-ANS from eFABP by fluorescence based-assay
[2] = biological target: T1, Fatty acid-binding protein, adipocyte (Homo sapiens, UniProt P15090); assay: Displacement of 1,8-ANS from aFABP by fluorescence based-assay
T1 sequence (P15090 whole entry): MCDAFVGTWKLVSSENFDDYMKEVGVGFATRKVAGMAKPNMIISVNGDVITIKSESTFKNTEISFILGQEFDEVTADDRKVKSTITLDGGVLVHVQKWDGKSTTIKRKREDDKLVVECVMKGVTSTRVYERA

[3] = biological target: Fatty acid-binding protein, heart (Homo sapiens, UniProt P05413); assay: Displacement of 1,8-ANS from mFABP by fluorescence based-assay
Sequence of Fatty acid-binding protein, heart (P05413 whole entry): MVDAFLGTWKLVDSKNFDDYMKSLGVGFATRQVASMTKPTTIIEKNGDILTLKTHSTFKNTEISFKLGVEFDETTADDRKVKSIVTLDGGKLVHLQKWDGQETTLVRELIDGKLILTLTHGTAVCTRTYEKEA

[4] = biological target: T1, Fatty acid-binding protein, adipocyte; assay: Displacement of [3H]2,3-bis[(2,4-dichlorobenzyl)oxy]benzoic acid from aFABP
[5] = biological target: T1, Fatty acid-binding protein, adipocyte; assay: Binding affinity to aFABP
Homo sapiens = species on record: Homo sapiens; assay: Selectivity for aFABP over mFABP by 1,8-ANS fluorescence based-assay

Sequence of Fatty acid-binding protein 5 (Q01469 whole entry): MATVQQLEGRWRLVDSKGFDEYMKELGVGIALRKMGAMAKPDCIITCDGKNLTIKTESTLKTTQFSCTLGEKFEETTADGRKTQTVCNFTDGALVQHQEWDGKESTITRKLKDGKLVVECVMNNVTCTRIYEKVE

Row | Compound | Ki [1] | Ki [2] | Ki [3] | Ki [4] | Kd [5] | Ratio Ki (Homo sapiens)
1 | O=C(O)COc1cccc(-c2ccccc2-c2cc(-c3ccccc3)c(-c3ccccc3)[nH]2)c1 | > 2000 nM | 12 nM | > 1000 nM |  |  | 
2 | CCn1c(-c2ccccc2-c2cccc(OCC(=O)O)c2)nc(-c2ccccc2)c1-c1ccccc1 |  | < 2 nM | > 1000 nM | 3.3 nM |  | 
3 | Cn1c(-c2ccccc2-c2cccc(NCC(=O)O)c2)nc(-c2ccccc2)c1-c1ccccc1 | > 2000 nM | 2.7 nM | > 1000 nM | 48 nM |  | 
4 | CCc1c(-c2ccccc2-c2cccc(OCC(=O)O)c2)oc(-c2ccccc2)c1-c1ccccc1 |  | 3.5 nM | 220 nM | 32 nM |  | 
5 | [3H]c1c(Cl)ccc(COc2cccc(C(=O)O)c2OCc2ccc(Cl)c([3H])c2Cl)c1Cl | 2 nM | 2 nM | 4 nM |  | 21 nM | 
6 | CCc1c(-c2ccccc2)c(-c2ccccc2)nn1-c1ccccc1-c1cccc(C(O)C(=O)O)c1 (stereo not given) | 550 nM | 28 nM | 360 nM |  |  | 
7 | CCn1c(-c2ccccc2-c2cccc(NCC(=O)O)c2)nc(-c2ccccc2)c1-c1ccccc1 | > 2000 nM | 3.4 nM | > 1000 nM | 13 nM |  | 
8 | O=C(O)COc1cccc(-c2ccccc2-c2cc(-c3ccccc3)c(-c3ccccc3)o2)c1 | > 2000 nM | 36 nM | > 1000 nM |  |  | 
9 | O=S(=O)(O)c1cccc2cccc(Nc3ccccc3)c12 |  |  |  | 1000 nM | 150 nM | 
10 | Cn1c(-c2ccccc2-c2cccc(OCC(=O)O)c2)nc(-c2ccccc2)c1-c1ccccc1 |  | < 2 nM | > 1000 nM | 13 nM |  | 
11 | O=C(O)COc1cccc(-c2ccccc2-c2nc(-c3ccccc3)c(-c3ccccc3)n2CCF)c1 | > 2000 nM | < 2 nM | > 1000 nM | 8.7 nM |  | 
12 | CC(C)Cn1c(-c2ccccc2-c2cccc(NCC(=O)O)c2)nc(-c2ccccc2)c1-c1ccccc1 | > 2000 nM | 130 nM | > 1000 nM |  |  | 
13 | O=C(O)CCCCOc1ccccc1-c1nc(-c2ccccc2)c(-c2ccccc2)o1 | > 2000 nM | 58 nM | 32 nM |  |  | 

More lines, now with the values ahead:

Row | Ki [1] | Ki [2] | Ki [3] | Ki [4] | Kd [5] | Ratio Ki (Homo sapiens) | Compound
14 |  | 650 nM | 110 nM |  |  |  | CCc1c(-c2ccccc2)c(-c2ccccc2)nn1-c1ccccc1-c1cccc(C(=O)O)c1
15 | > 2000 nM | 18 nM | > 1000 nM | 300 nM |  |  | O=C(O)CNc1cccc(-c2ccccc2-c2nc(-c3ccccc3)c(-c3ccccc3)[nH]2)c1
16 | > 2000 nM | 9.3 nM | > 1000 nM |  |  |  | O=C(O)COc1cccc(-c2ccccc2-c2nc(-c3ccccc3)c(-c3ccccc3)[nH]2)c1
17 | > 2000 nM | > 2000 nM | > 1000 nM |  |  |  | O=C(O)CNc1cccc(-c2ccccc2-c2nc(-c3ccccc3)c(-c3ccccc3)n2CC(=O)O)c1
18 | 248 nM |  |  |  |  |  | CCCCCCCC/C=C\CCCCCCCC(=O)O [OLEIC ACID]
19 | > 2000 nM | 6 nM | > 1000 nM | 95 nM |  | 170 | O=C(O)COc1cccc(-c2ccccc2-c2nc(-c3ccccc3)c(-c3ccccc3)o2)c1
